Values of other authors as cited in patent publication US11965206B2, “Method of dosing a patient with multiple drugs using adjusted phenotypes of CYP450 enzymes” (priority 2018, dated 2024).
Read-outs that look alike come from different tables or passages of the source.

What was measured:
CYP450 enzyme 2D6 = CYP450 enzyme 2D6 (Homo sapiens, UniProt P10635)
CYP450 enzyme 2C9 = CYP450 enzyme 2C9 (Homo sapiens, UniProt P11712); conditions: found in drug databases
CYP450 enzyme 2B6 = target: T1, CYP450 enzyme 2B6 (Homo sapiens, UniProt P20813); conditions: found in drug databases
T1 sequence (P20813 1-491): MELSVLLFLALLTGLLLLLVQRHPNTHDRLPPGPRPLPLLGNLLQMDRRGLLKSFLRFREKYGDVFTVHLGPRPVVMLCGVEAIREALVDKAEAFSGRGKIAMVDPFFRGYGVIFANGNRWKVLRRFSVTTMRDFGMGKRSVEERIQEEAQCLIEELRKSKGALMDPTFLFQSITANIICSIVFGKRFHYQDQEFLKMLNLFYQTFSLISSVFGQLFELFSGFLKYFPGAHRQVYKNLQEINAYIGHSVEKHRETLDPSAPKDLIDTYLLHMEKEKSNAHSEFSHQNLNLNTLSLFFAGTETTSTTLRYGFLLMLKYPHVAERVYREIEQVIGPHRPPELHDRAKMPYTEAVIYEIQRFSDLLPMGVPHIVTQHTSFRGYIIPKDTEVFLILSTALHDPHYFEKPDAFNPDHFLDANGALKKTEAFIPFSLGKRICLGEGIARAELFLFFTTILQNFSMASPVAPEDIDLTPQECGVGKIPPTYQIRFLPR

CYP450 enzyme 2C19 = CYP450 enzyme 2C19 (Homo sapiens, UniProt P33261); conditions: found in drug databases
CYP450 enzyme 2C19, sequence (P33261 whole entry): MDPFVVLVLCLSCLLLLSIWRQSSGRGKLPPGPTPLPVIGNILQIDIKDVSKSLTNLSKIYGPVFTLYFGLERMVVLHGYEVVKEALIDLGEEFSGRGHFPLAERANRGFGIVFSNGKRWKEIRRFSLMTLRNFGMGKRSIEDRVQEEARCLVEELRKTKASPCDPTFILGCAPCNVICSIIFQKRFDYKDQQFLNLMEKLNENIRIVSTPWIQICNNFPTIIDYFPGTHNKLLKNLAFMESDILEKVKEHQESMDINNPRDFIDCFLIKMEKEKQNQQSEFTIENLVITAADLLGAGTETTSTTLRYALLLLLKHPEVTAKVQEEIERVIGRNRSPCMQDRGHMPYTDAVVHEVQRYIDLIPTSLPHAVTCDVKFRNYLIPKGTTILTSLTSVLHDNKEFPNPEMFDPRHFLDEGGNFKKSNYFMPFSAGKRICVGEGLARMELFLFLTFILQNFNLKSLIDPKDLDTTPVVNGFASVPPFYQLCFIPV

CYP450 enzyme 3A4 = CYP450 enzyme 3A4 (Homo sapiens, UniProt P08684)
CYP450 enzyme 3A4, sequence (P08684 whole entry): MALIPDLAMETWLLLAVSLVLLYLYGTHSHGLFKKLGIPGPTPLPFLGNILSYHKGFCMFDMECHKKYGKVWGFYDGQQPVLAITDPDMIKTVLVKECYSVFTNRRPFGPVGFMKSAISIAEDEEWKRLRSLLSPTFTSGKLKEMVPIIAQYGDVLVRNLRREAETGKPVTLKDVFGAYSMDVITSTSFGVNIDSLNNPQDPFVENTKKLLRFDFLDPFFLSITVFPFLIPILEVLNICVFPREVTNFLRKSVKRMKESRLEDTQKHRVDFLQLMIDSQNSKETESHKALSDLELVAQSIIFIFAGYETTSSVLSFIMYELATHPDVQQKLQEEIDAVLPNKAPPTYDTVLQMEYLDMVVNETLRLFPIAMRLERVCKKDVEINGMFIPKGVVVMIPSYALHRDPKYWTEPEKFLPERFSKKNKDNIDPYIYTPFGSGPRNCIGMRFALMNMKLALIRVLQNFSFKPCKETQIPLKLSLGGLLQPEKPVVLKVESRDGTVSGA

CYP450 enzyme 2D6, sequence (P10635 whole entry): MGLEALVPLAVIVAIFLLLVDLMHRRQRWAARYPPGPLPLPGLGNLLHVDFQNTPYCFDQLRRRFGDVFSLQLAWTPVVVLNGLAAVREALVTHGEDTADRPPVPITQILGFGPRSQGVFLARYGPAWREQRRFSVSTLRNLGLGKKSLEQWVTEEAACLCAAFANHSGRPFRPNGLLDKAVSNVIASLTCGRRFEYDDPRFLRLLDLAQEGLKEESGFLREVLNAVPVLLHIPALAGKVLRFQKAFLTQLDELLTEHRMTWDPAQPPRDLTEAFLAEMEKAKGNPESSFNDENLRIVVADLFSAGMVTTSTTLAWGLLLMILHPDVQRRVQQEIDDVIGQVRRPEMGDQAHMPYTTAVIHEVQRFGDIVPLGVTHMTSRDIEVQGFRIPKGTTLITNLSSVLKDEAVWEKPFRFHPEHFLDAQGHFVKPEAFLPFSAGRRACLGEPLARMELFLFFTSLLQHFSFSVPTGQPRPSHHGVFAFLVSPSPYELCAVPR
CYP450 enzyme 2C9, sequence (P11712 whole entry): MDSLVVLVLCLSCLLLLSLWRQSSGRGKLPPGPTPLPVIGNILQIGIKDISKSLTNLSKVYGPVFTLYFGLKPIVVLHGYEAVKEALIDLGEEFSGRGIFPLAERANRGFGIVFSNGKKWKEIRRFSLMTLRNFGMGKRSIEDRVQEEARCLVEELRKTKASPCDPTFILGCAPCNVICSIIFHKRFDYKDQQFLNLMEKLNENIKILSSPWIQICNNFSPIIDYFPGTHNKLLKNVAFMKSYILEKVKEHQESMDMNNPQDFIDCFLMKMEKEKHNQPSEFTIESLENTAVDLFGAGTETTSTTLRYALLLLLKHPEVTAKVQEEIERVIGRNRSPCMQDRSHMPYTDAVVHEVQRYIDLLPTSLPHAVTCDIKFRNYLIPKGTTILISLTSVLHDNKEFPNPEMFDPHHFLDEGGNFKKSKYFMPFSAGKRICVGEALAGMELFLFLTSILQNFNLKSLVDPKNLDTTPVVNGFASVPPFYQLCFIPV

Row | SMILES | substrate for 2D6 (CYP450 enzyme 2D6; found in drug databases) | substrate for 2C9 (CYP450 enzyme 2C9) | strong, moderate or weak inhibitor of 2D6 (CYP450 enzyme 2D6; found in drug databases) | also measured
1 | O=C1CCc2ccc(OCCCCN3CCN(c4cccc(Cl)c4Cl)CC3)cc2N1 [Abilify] | substrate | – | – | –
2 | CCCC(CCC)C(=O)O [Depakote] | – | substrate | – | strong, moderate or weak inhibitor of 2C9 (CYP450 enzyme 2C9): weak inhibitor; substrate for 2B6 (CYP450 enzyme 2B6): substrate; strong, moderate or weak inhibitor of 2C19 (CYP450 enzyme 2C19): weak inhibitor
3 | O=C(CCCN1CCC(O)(c2ccc(Cl)cc2)CC1)c1ccc(F)cc1 [Haldol] | substrate | – | weak inhibitor | –
4 | CCCCC1=NC2(CCCC2)C(=O)N1Cc1ccc(-c2ccccc2-c2nnn[nH]2)cc1 [Irbesartan] | – | substrate | – | –
5 | CNCCC(Oc1ccc(C(F)(F)F)cc1)c1ccccc1 (stereo not shown) [Prozac] | substrate | substrate | – | strong, moderate or weak inhibitor of 2C9 (CYP450 enzyme 2C9): moderate inhibitor
6 | Cc1nc2n(c(=O)c1CCN1CCC(c3noc4cc(F)ccc34)CC1)CCCC2 [Risperidone] | substrate | – | weak inhibitor | –
7 | COCCc1ccc(OCC(O)CNC(C)C)cc1 (stereo not shown) [metoprolol] | substrate | – | – | –
8 | Fc1ccc([C@@H]2CCNC[C@H]2COc2ccc3c(c2)OCO3)cc1 [paroxetine] | – | – | – | substrate for 2D6 (CYP450 enzyme 2D6): substrate

Second part, led by results:

Row | substrate for 2D6 (CYP450 enzyme 2D6; found in drug databases) | substrate for 2C9 (CYP450 enzyme 2C9) | strong, moderate or weak inhibitor of 2D6 (CYP450 enzyme 2D6; found in drug databases) | SMILES | also measured
9 | – | – | weak inhibitor | COc1ccc([C@@H]2Sc3ccccc3N(CCN(C)C)C(=O)[C@@H]2OC(C)=O)cc1 [Diltiazem, diltiazem] | –
10 | – | – | weak inhibitor | CN(C)CCC[C@@]1(c2ccc(F)cc2)OCc2cc(C#N)ccc21 [Lexapro] | substrate for 3A4 (CYP450 enzyme 3A4): substrate; substrate for 2C19 (CYP450 enzyme 2C19): substrate
